# From US20230398163A1, “FRUIT EXTRACTS FOR USE IN THE TREATMENT OF NEURODEGENERATIVE DISEASES” (NEUROSCIENCE PHARMA SPA, priority 2020, published 2023)
# System: PC12 cells
# Test: MTT cell viability assay, extract alone
# Assay type: cell-based
# Conditions: addition of FCCP
# Description: Cellular health was quantified using a 3-(4,5-dimethylthizol-2-yl)-2,5-diphenyltetrazolium bromide (MTT) assay, which indicates cell viability. Cultured PC12 cells were incubated in MTT (1 mg/ml) in 1X DPBS (Dulbecco's phosphate-buffered saline) for 30 minutes, in the presence (or absence) of maqui berry extract provided a concentrations ranging from 0.000081 mg/l to 81 mg/l. Precipitated MTT was dissolved using isopropanol for 15 minutes prior to being added to the culture medium. The cell absorbance was measured in a microplate reader (Novostar, BGM, Germany) at two wavelengths: 560 nm and 620 nm. The difference in cellular absorbance was quantified between the two wavelengths using NovoStar software across experimental conditions.
structure (smiles),measurement,value
"N#CC(C#N)=NNc1ccc(OC(F)(F)F)cc1 [FCCP, Carbonyl cyanide 4-(trifluoromethoxy)phenylhydrazone]",cell viability percent relative to control (MTT),significant decrease in cell viability percent relative to control levels
